Measurements taken from patent publication US20200009118A1, “COMPOSITIONS AND METHODS FOR THE TREATMENTOF NEURODEGENERATIVE AND OTHER DISEASES” (Glialogix, Inc., priority 2017, published 2020).

Legend:
[1] = test system: Lcn-2 mRNA in primary rat astrocyte cells; experiment: qPCR of Lcn-2 mRNA in primary astrocytes; type: cell-based; details: astrocyte media, control gene gamma-actin
Method: (§1) Primary rat astrocyte cells were purchased from All Cells (Catalog #RCTX-001F, Alameda, Calif.), thawed and resuspended in 13.4 ml of DMEM media (Catalog #12-614F, Lonza, Allendale, N.J.) supplemented with 15% v/v FBS (Catalog #F4135, Sigma-Aldrich, St. Louis, Mo.) and 560 μL aliquoted into wells in a 24-well plate. Cells were incubated at 37° C. with 5% CO2. For each qPCR experiment, 2-3 wells (approximately 42,000-63,000 cells) were transferred to a new 24-well plate with fresh astrocyte media, composed of 50% v/v DMEM, 50% v/v Neurobasal media (Catalog #12348-017), Life Technologies, supplemented with 2 mM glutamine, 300 μM L-cystine. Following 24 hours, cells were then mixed and aliquoted into 24 well plates at approximately 10,000 cells per well in the same media. Compounds to be tested were then added at the indicated concentrations and cells harvested 18 hours later by washing once with PBS (Catalog #P5493, Sigma-Aldrich) and then treated with 300 μl of StemProAccutase cell dissociation reagent (Catalog #A11105-01, Life Technologies) and incubated for 5-10 minutes at 37° C. PBS (300 μl) was added and the cells spun down in a microfuge for 5 minutes at 2,000×g at 4° C. The supernatant was removed and mRNA was isolated from the cells by using the Purelink microscale RNA extraction kit (Catalog #12183016, Life Technologies) according to the manufacturer's instructions. The mRNA resuspended in 12-22 μl of RNase-free water. cDNA was prepared by use of the Superscript VILO kit (Catalog #11755050, Life Technologies) according to the manufacturer's instructions. The cDNA was eluted in a final volume of 20 μl RNase-free water in and 4 μl was used for each qPCR reaction. qPCR reactions and primers were as described in Example 11.
(§2) To determine if tunicamycin increased levels of xCT mRNA, Tunicamycin (5 ng/ml) was added to the primary astrocyte cell cultures in astrocyte media. xCT gene expression was determined by qPCR after 18 hours of exposure to tunicamycin.
(§3) The Cycle threshold is abbreviated Ct. The change in Ct equals [Ct (minus test agent)−Ct (plus test agent)]. Changes in Ct of the test genes xCT and Lcn-2 are normalized by subtracting the change in Ct of the control gene, either gamma-actin or Hypoxanthine-guanine phosphoribosyl transferase (HPRT). Ct values are converted to absolute values by the formula: absolute value=2^^(normalized change in Ct). Absolute values are converted to percent change by multiplying the absolute value by 100.
(§4) Using the methods described in Example 11, various agents known to cause activation of neuroinflammatory cells and/or cause or reflect stress and damage to neurons, axons and/or oligodendrocytes were tested for causing an increase in xCT levels in primary rat astrocytes.

[2] = test system: xCT mRNA in primary rat astrocyte cells; experiment: qPCR of xCT mRNA in primary astrocytes; type: cell-based; details: astrocyte media, control gene gamma-actin
Method: as §1, §2, §3, §4

[3] = biological target: T1, xCT (Rattus norvegicus, UniProt A0A8I6AB70); experiment: Extracellular glutamate from primary astrocytes (Amplex Red Glutamic Acid/Glutamate Oxidase Assay); type: cell-based; details: TNF-alpha 100 μg/ml 18 hours in astrocyte media, no sulfasalazine
T1 construct: host or cells: primary rat astrocytes
From the text: xCT is a cystine-glutamate exchange protein that imports extracellular cystine in exchange for exporting intracellular glutamate. xCT activity can be measured by measuring the level of the extracellular glutamate that is exported. For detection of extracellular glutamate, the Amplex Red Glutamic Acid/Glutamate Oxidase Assay Kit from Life Technologies (Catalog #A-1222, Grand Island, N.Y.) was used following the manufacturer's instructions. Fluorescence from the Amplex Red fluorophore is directly proportional to glutamate concentration and was detected on an Enspire plate reader (Perkin-Elmer (Model #2300, Santa Clara, Calif.) with excitation wavelength at 530 nm and detection wavelength at 590 nm according to the manufacturer's instructions.
Astrocytes were grown in 24-well microtiter plates at a density of approximately 10,000 cells/well in a total volume of 400 μl of astrocyte media. Cells were incubated 18 hours in either astrocyte media plus 100 μM cystine (Catalog #C8755; Sigma-Aldrich) or astrocyte media plus 100 μM cystine plus TNF-alpha (100 μg/ml). After 18 hours, the media was removed and the adherent astrocytes washed twice with PBS and then 400 μL of minimal media was added to the cells. The minimal media was EBSS (catalog #E3024, Sigma-Aldrich) supplemented with 100 μM cystine and 10 mM D-glucose (catalog #G8769, Sigma-Aldrich).
The top 25 μL of the supernatant was then transferred to a 0.5 ml microfuge tube and the aliquots frozen at −80.
For the glutamate assay, samples of the media were thawed, pipetted up and down to ensure mixing and 20 μl added to 80 μl of the Amplex Red assay mix in a 96-well microtiter plate (catalog #M4436, Greiner, Frickenhausen, Germany). The reactions were covered in aluminum foil and allowed to proceed for 30 minutes at 37° C. and then fluorescence measured as described above.
Concurrently with analysis of the astrocyte samples, a standard curve of the Amplex Red glutamate assay in the minimal media was prepared following the manufacturer's instructions and using known concentrations of glutamate: 0, 0.5, 1, 2 and 4 μM. Table 19 gives the numerical results of the standard curve assay and the results are depicted graphically in FIG. 17.

[4] = test system: IL1-beta mRNA in primary rat microglial cells; experiment: qPCR of IL1-beta mRNA in primary microglia; type: cell-based; details: control gene gamma-actin
Method: (§5) Following 24 hours, cells were then mixed and aliquoted in to 96 wells at 7,000-20,000 cells per well in fresh media, either complete media (microglia) or minimal media (100 mL Neurobasal Media (#12348-017, Life Tech) supplemented with 1 mL N2 supplement (#17502-048, Life Tech) and 0.5 mM GlutaMax (#35050-061, Life Tech). Compounds to be tested were then added at the indicated concentrations and cells harvested 18 hours later by centrifugation at 2000×g, 5 minutes at 4° C. mRNA was isolated from the cells by use of the Purelink microscale RNA extraction kit (Catalog #12183016, Life Technologies) kit and the mRNA resuspended in 12-22 μl of RNase-free water according to the manufacturer's instructions. cDNA was prepared by use of the Superscript VILO kit (Catalog #11755050, Life Technologies) according to the manufacturer's instructions. The cDNA was eluted in a final volume of 20 μl RNase-free water and 4 μl was used for each qPCR reaction. For the real-time qPCR reactions, primers and reagents were supplied by Life Technologies and used according to the manufacturer's instructions. The detection molecule was the TaqMan probe with FAM dye label on 5′ end that binds to non-labeled primer pairs. The qPCR machine was a model 7500 Fast Real Time machine from ABI and used according to the manufacturer's instructions. 4 μl of the cDNA reaction was used for each qPCR reactions in a final volume of 20 μl. […] mRNA levels were quantitated by measuring the Cycle threshold (Ct) for each qPCR reaction using the standard algorithm supplied with the ABI 7500 Fast qPCR machine without modification. The Ct is defined as the number of cycles required for the fluorescent signal to cross the threshold (e.g. exceeds background level). […] The Cycle threshold is abbreviated Ct. The change in Ct equals [Ct (minus test agent)−Ct (plus test agent)]. Changes in Ct of the test genes xCT and IL1-beta are normalized by subtracting the change in Ct of the control gene, either gamma-actin or Hypoxanthine-guanine phosphoribosyl transferase (HPRT). […] Using the methods described in Example 11, various agents reported to cause activation of neuroinflammatory cells and/or known to cause or reflect damage to neurons, axons and/or oligodendrocytes were tested for their effect on xCT levels in primary rat microglia.

[5] = test system: xCT mRNA in primary rat microglial cells; experiment: qPCR of xCT mRNA in primary microglia; type: cell-based; details: control gene gamma-actin
Method: as §5

[6] = cited from earlier work
[7] = test system: SOD1^G93A transgenic mice; details: cited from earlier work
[8] = 100 ng/ml, complete media, 18 hours
[9] = 100 ng/ml, minimal media, 18 hours
[10] = published results in the SOD1 mouse model

T1 sequence (A0A8I6AB70 1-502): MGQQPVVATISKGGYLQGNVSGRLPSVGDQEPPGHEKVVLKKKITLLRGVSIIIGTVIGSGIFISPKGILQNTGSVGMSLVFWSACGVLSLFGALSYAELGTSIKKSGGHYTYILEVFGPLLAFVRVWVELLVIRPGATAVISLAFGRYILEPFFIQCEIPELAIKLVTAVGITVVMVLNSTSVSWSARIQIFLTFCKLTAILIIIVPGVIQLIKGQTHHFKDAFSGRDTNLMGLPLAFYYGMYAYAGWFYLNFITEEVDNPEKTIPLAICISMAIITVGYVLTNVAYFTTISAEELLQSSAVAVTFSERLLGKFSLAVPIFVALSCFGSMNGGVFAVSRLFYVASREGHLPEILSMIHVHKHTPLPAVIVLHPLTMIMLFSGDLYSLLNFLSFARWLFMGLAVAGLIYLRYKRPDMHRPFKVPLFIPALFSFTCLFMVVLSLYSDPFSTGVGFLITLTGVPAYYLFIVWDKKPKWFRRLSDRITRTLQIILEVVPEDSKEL
T1 sequence (Q794F9 whole entry partner): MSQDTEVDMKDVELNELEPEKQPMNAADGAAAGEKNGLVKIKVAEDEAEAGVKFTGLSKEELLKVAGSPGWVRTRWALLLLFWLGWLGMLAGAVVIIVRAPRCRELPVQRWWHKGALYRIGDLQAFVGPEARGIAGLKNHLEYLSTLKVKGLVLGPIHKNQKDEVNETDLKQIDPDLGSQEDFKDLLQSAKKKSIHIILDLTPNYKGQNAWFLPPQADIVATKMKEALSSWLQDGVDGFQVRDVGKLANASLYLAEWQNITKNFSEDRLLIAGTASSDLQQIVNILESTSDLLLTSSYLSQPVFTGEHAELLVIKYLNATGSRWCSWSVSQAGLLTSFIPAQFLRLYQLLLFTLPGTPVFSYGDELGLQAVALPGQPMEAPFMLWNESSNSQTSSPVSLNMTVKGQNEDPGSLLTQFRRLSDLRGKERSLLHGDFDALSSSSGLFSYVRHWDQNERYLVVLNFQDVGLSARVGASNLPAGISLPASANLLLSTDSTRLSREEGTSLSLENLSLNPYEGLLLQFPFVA

TNF-alpha
Lcn-2, Percent change normalized ([1]; 100 ng/ml): 244% | xCT, Change in Ct normalized to control gene ([2]; 100 ng/ml): 1.376 | xCT, Fold change normalized ([2]; 100 ng/ml): 2.60 | xCT, Percent change normalized ([2]; 100 ng/ml): 260% | Calculated glutamate levels ([3]; 30 minutes in minimal media): 2.88 µM | Fluorescence units ([3]; 30 minutes in minimal media): 13398 | Calculated glutamate levels ([3]; 120 minutes in minimal media): 9.05 µM | Fluorescence units ([3]; 120 minutes in minimal media): 34307 | Calculated glutamate levels ([3]; 240 minutes in minimal media): 13.82 µM | Fluorescence units ([3]; 240 minutes in minimal media): 50468 | IL1-beta, Percent change normalized [4, 8]: 3,000% | xCT, Change in Ct normalized to control gene [5, 8]: 3.214 | xCT, Fold (absolute) change normalized [5, 8]: 9.3 | xCT, Percent change normalized [5, 8]: 930%

Nc1ccc(S(=O)(=O)Nc2ccccn2)cc1 [Sulfapyridine, sulfapyridine]
oral bioavailability (reaching the circulation following oral dosing) [6]: > 70%

Poly I/C
Lcn-2, Percent change normalized ([1]; 10 ug/ml): 76% | xCT, Change in Ct normalized to control gene ([2]; 10 ug/ml): 1.471 | xCT, Fold change normalized ([2]; 10 ug/ml): 2.77 | xCT, Percent change normalized ([2]; 10 ug/ml): 277% | IL1-beta, Percent change normalized [4, 8]: 1,900% | IL1-beta, Percent change normalized [4, 9]: 1,099% | xCT, Change in Ct normalized to control gene [5, 8]: 6.186 | xCT, Fold (absolute) change normalized [5, 8]: 72.8 | xCT, Percent change normalized [5, 8]: 7,281% | xCT, Change in Ct normalized to control gene [5, 9]: 3.619 | xCT, Fold (absolute) change normalized [5, 9]: 12.3 | xCT, Percent change normalized [5, 9]: 1229%

Nc1nc2ccc(OC(F)(F)F)cc2s1 [riluzole]
increased lifespan after onset of neurological disease [7, 10]: 1% | increased absolute lifespan ([7]; same SOD1 model under similar conditions, Lincecum et al.): 1.6%

CC(C)Cc1ccc(C(C)C(=O)O)cc1 (centres unmarked) [ibuprofen]
decreased lifespan after onset of neurological disease [7, 10]: 10%

IFN-gamma: inflammatory cytokine
IL1-beta, Percent change normalized ([4]; 30 ng/ml, complete media): 2,043% | IL1-beta, Percent change normalized [4, 8]: 446% | xCT, Change in Ct normalized to control gene ([5]; 30 ng/ml, complete media): 1.417 | xCT, Fold change normalized ([5]; 30 ng/ml, complete media): 2.7 | xCT, Percent change normalized ([5]; 30 ng/ml, complete media): 270% | xCT, Change in Ct normalized to control gene [5, 8]: 1.636 | xCT, Fold (absolute) change normalized [5, 8]: 3.1 | xCT, Percent change normalized [5, 8]: 311%
